{
  "source": "patent US6552066B1",
  "about": "“Protein tyrosine kinase inhibitors for treating osteoarthritis” (priority 1995, dated 2003)",
  "key": {"[1]": {"test_system": "IL-1 induced release of 35S-labelled proteoglycans from chondrocytes", "assay": "Chondrocyte cell culture matrix breakdown assay (IL-1 induced 35S release)", "type": "cell-based, calf (bovine)", "conditions": "for inhibition at 50 µM / inhibition at 10 µM: Bos taurus, Chondrocyte", "method": "A cell culture assay was used to measure the ability of the test compounds to slow the degradation of the extracellular matrix by a metalloproteinase. This assay measured the amount ^35S released from chondrocytes grown in a media with ^35S labeled sodium sulfate. The cell culture assay was carried out as follows:\nTwo or three 1 to 3 week old calf joints were obtained from an abattoir. The proximal end of the shank was about 4-5′ long to facilitate immobilization in the holder. The joint was kept cool and transported on ice. The exterior of the intact joints was washed well with a suitable anti-microbial soap, rinsed clean with warm water, rinsed in betadine and then finally rinsed with 70% ethanol. Up to this point all steps were done in a manner to ensure that the joint was kept as clean as possible. All subsequent steps were performed in a sterile field (i.e., in a Edgeguard laminar flow tissue culture hood). The joint was immobilized and the synovial fluid was aspirated with a needle and syringe. The joint was then cut open to expose the articular cartilage using a #21 scalpel. Using locking hemostats, forceps and a #15 scalpel, the cartilage was excised in full thickness pieces. Care was taken not to cut too deep into the subchondral bone to prevent bleeding. The cartilage pieces were placed into a 50 mL centrifuge tube containing 25 mL of Delbecco's phosphate buffered saline (D-PBS) supplemented with 1% antibiotic solution (penicillin, streptomycin and fungizone; GIBCO/BRL). The slices from each joint were then placed into separate 50 mL centrifuge tubes. The D-PBS was decanted and replaced with 25 mL of fresh D-PBS supplemented with antibiotics and subsequently agitated gently.\nThe cartilage pieces were transferred to a fresh 50 mL centrifuge tube and rinsed once more with 25 mL of D-PBS minus antibiotics. An enzymatic digestion solution containing 1 mg/mL of hyaluronidase in serum-free 1:1 DMEM/Ham's F-12 (DMEM/F12) was prepared. This solution was filter sterilized with 0.22 mm Milex-GV filter and kept on ice until ready to use. The cartilage pieces were digested with approximately 5 mL of hyaluronidase solution per joint for 2×15 minutes at 37° C. in the 50 mL centrifuge tube with gentle agitation at the 15 minute mark. This procedure removed residual hyaluronic acid from the surface of the chips. The enzymatic digestion solution was then aspirated and the cartilage pieces were rinsed with 25 mL of D-PBS.\nA second enzymatic digestion solution containing 2.5 mg trypsin and 2 mg collagenase P per mL serum-free DMEM/F12 was prepared. This solution was also filter sterilized with a 0.22 mm Millex-GV filter and kept on ice until ready to use. The cartilage pieces were digested with approximately 5 mL of trypsin: collagenase solution per joint for 2×15 minutes at 37° C. in the 50 mL centrifuge tube with gentle agitation at the 15 minute mark. This procedure removed the synovial fibroblasts and any adherent connective tissue from the surface of the chips. The enzymatic digestion solution was then carefully removed and saved and the cartilage pieces were rinsed with 25 mL of D-PBS.\nA third enzymatic solution containing 2 mgs of collagenase P (BMB) per mL serum-free DMEM/F12 was prepared. This solution was filter sterilized with a 0.22 mm Millex-GV filter and kept on ice until ready to use. The pre-digested cartilage pieces were finally digested with approximately 20 mL of enzymatic digestion solution per joint for 5-6 hours at 37° C. in a Bellco stirring digestion flask, at which point the cartilage was fully digested away.\nThe enzymes in the synovial fibroblast and chondrocyte digest were neutralized by addition of an equal volume of DMEM/F12 supplemented with 5% fetal bovine serum. Fibroblasts were plated in DMEM at a cellular density of 6.6×10^3 cells per cm^2. […]"}, "prostromelysin protein": {"test_system": "prostromelysin protein", "assay": "Western immunoblot of IL-1-induced prostromelysin protein in primary bovine chondrocytes", "type": "cell-based", "conditions": "for effect on IL-1α-induced prostromelysin protein levels: repeat experiment; for effect on IL-1-induced prostromelysin levels: first experiment", "method": "Isolation and culturing of primary bovine articular chondrocytes, as well as addition of inhibitors were performed as indicated above in Example 4. The following protein kinase inhibitors were tested: 1) Protein kinase A (PKA) inhibitors; 0.5 μM H88 (Seikagaku Corp.), 0.5 μM H89 (Seikagaku Corp.), 2) Protein kinase C (PKC) inhibitors; 0.5 μM Calphostin C (Calbiochem), 1.0 μM Chelerythrine (Calbiochem); 3) CA^2+/Calmodulin Kinase II inhibitor; 5.0 μM KN93 (Seikagaku Corp.); 4) Protein tyrosine kinase (PTK) inhibitors; 50 μM Genistein (Calbiochem), 10 μM Herbimycin A (Calbiochem).\nAfter the 24 hour IL-1α incubation, the media of each sample was measured and collected on ice in the presence of the protease inhibitors EGTA (5 mM), Pefabloc (1 mM), pepstatin (1 μg/ml), and NEM (5 mM). Media were concentrated approximately 40 fold using a Centriprep-10 ultrafiltration device (Amicon). Concentrated samples were normalized to equivalent starting concentrations (cell number/culture volume), were reduced in the presence of SDS Laemmli sample buffer and electrophoresed in a precast 12% polyacrylamide gel (BioRad). Protein samples were then electroblotted to nitrocellulose and immunodetected using a primary antibody that recognizes both prostromelysin and stromelysin. Immunoreactive bands were visualized with the ABC detection (Pierce) and an NBT/BCIP color reagent (Sigma).\nA repeat of the Western immunoblotting experiment using antistromelysin antibodies was performed. Furthermore, additional inhibitors from four enzyme families were examined: 1) Protein tyrosine kinase (PTK) inhibitors: 1 μM Tyrphostin AG 1296 (Calbiochem), 50 μM Tyrphostin A25 (AG 82) (Calbiochem), 50 μM Tyrphostin AG 126 (Calbiochem); 2) Guanylate cyclase inhibitor; 10 μM LY-83583 (Calbiochem); 3) Casein kinase I inhibitor; 20 μM CKI-7 (Seikagaku Corp.); and 4) Protein kinase G (PKG) and PKA inhibitor; 5.0 μM H89."}, "[2]": {"test_system": "aggrecanase activity in bovine cartilage explants", "assay": "Bovine cartilage explant assay without added plasminogen (IL-1-induced aggrecanase degradation)", "type": "cell-based", "conditions": "no added plasminogen", "source_text": "The assay described in Example 2 can be carried out with and without added plasminogen. With plasminogen, the active forms of the metalloproteinases (MMPs) and plasmin were generated. It is believed that MMPs, “aggrecanase” and plasmin degraded the cartilage explant in this assay. […] Therefore, in the absence of plasminogen, cartilage degradation occurred primarily as a result of “aggrecanase” activity."}, "[3]": {"conditions": "concentration not printed in Example 5"}},
  "note": "Like-named read-outs stand apart in the source and are kept apart here.",
  "data": [
    {"smiles": "O=C1NC(=O)c2cc(Nc3ccccc3)c(Nc3ccccc3)cc21", "note": "[DAPH, 4,5-dianilinophthalimide]", "values": [
      {"measurement": "percent inhibition of IL-1 induced 35S release", "setting": "[1]; 2 μM, repeated assay", "value": "no inhibition"},
      {"measurement": "percent inhibition of IL-1 induced 35S release", "setting": "[1]; 20 μM, repeated assay", "value": "no inhibition"},
      {"measurement": "effect on IL-1α-induced prostromelysin protein levels", "setting": "prostromelysin protein; [3]", "value": "dramatic reduction"}
    ]},
    {"smiles": "O=c1c(-c2ccc(O)cc2)coc2cc(O)cc(O)c12", "note": "[Genistein]", "values": [
      {"measurement": "inhibition at 50 µM", "setting": "[1]; 50 μM, first experiment, 1 ng/ml rhIL-1α, read-out: inhibitory effect on IL-1 induced release of 35S-labelled proteoglycans", "value": "75 to 100", "unit": "%"},
      {"measurement": "inhibition at 50 µM", "setting": "[1]; 50 μM, repeated assay, read-out: percent inhibition of IL-1 induced 35S release", "value": 58, "unit": "%"},
      {"measurement": "inhibition at 50 µM", "setting": "[2]; Bos taurus, 50 μM, read-out: inhibition of release of 35S-labelled proteoglycan", "value": 37, "unit": "%"},
      {"measurement": "effect on IL-1-induced prostromelysin levels", "setting": "prostromelysin protein; 50 μM", "value": "completely inhibited"},
      {"measurement": "effect on IL-1α-induced prostromelysin protein levels", "setting": "prostromelysin protein; 50 μM", "value": "dramatic reduction"}
    ]},
    {"smiles": "CO[C@H]1[C@@H](OC)C[C@H](C)[C@@H](OC)C2=CC(=O)C=C(NC(=O)/C(C)=C/C=C\\[C@H](OC)[C@@H](OC(N)=O)/C(C)=C/[C@@H]1C)C2=O", "note": "[Herbimycin A]", "values": [
      {"measurement": "inhibition at 10 µM", "setting": "[1]; first experiment, 1 ng/ml rhIL-1α, read-out: inhibitory effect on IL-1 induced release of 35S-labelled proteoglycans", "value": "75 to 100", "unit": "%"},
      {"measurement": "inhibition at 10 µM", "setting": "[1]; repeated assay, read-out: percent inhibition of IL-1 induced 35S release", "value": 89, "unit": "%"},
      {"measurement": "inhibition at 0.25 µM", "setting": "[2]; Bos taurus, 0.25 μM, read-out: inhibition of release of 35S-labelled proteoglycan", "value": 55, "unit": "%"},
      {"measurement": "inhibition at 0.5 µM", "setting": "[2]; Bos taurus, 0.5 μM, read-out: inhibition of release of 35S-labelled proteoglycan", "value": 63, "unit": "%"},
      {"measurement": "inhibition at 1 µM", "setting": "[2]; Bos taurus, 1 μM, read-out: inhibition of release of 35S-labelled proteoglycan", "value": 78, "unit": "%"},
      {"measurement": "effect on IL-1-induced prostromelysin levels", "setting": "prostromelysin protein; 10 μM", "value": "completely inhibited"},
      {"measurement": "effect on IL-1α-induced prostromelysin protein levels", "setting": "prostromelysin protein; 10 μM", "value": "dramatic reduction"}
    ]},
    {"smiles": "N#CC(C#N)=Cc1cc(O)c(O)c(O)c1", "note": "[Tyrphostin AG 82]", "values": [
      {"measurement": "percent inhibition of IL-1 induced 35S release", "setting": "[1]; 50 μM, repeated assay", "value": 40, "unit": "%"},
      {"measurement": "inhibition of release of 35S-labelled proteoglycan", "setting": "[2]; 50 μM", "value": 31, "unit": "%"},
      {"measurement": "effect on IL-1α-induced prostromelysin protein levels", "setting": "prostromelysin protein; 50 μM", "value": "slight inhibitory activity"}
    ]},
    {"smiles": "N#CC(C#N)=Cc1ccc([N+](=O)[O-])c(O)c1", "note": "[Tyrphostin AG 126]", "values": [
      {"measurement": "percent inhibition of IL-1 induced 35S release", "setting": "[1]; 50 μM, repeated assay", "value": "no inhibition"},
      {"measurement": "inhibition of release of 35S-labelled proteoglycan", "setting": "[2]; 50 μM", "value": "no effect"},
      {"measurement": "effect on IL-1α-induced prostromelysin protein levels", "setting": "prostromelysin protein; 50 μM", "value": "no effect"}
    ]},
    {"smiles": "N#C/C(=C\\c1ccc(O)c(O)c1)C(=O)NCCCCc1ccccc1", "note": "[Tyrphostin AG 556]", "values": [
      {"measurement": "percent inhibition of IL-1 induced 35S release", "setting": "[1]; 50 μM, repeated assay", "value": 100, "unit": "%"},
      {"measurement": "effect on IL-1α-induced prostromelysin protein levels", "setting": "prostromelysin protein; [3]", "value": "dramatic reduction"}
    ]}
  ]
}
